Results: publication PMC10060354, “Discovery of a small molecule ligand of FRS2 that inhibits invasion and tumor growth” (Cellular Oncology, 2022)
Where “and” joins values, the source holds several entries; their conditions need not be identical. Equal entries are not always repeated. Where two headings read alike, the source gives them in different places.

Experiments:
[1] = test system: bFGF-sensitive (M059K, RT-112, SW780) and bFGF-insensitive (SKOV3, AGS and HCT116) cell lines; assay: SIA, collagen I invasion in panel of human cancer cell models; assay type: cell-based; details: 10 µM
Description: 1000—2500 cells/well in 100 μl were seeded in 96 well Corning® Spheroid microplate (CLS4520, Sigma-Aldrich) or in cell-repellent 96 well microplate (650,790, Greiner Bio-one). SIA and analysis was performed as described before. In brief: After spheroid formation (24 – 72 h after seeding), 70 µl medium was removed and replaced with the collagen mixture (2.5 mg/ml Pure Col Collagen I (Advanced Biomatrix)), DMEM 1x (from 10 × stock, Sigma, D2429) and 0.4% Sodium bicarbonate (Sigma, S8761)), resulting in a final collagen concentration of 1.75 mg/ml. Embedded spheroids were stimulated with bFGF (100 ng/ml if not otherwise stated), HGF (30 ng /ml) or EGF (20 ng/ml) and distance of invaded cells quantified 24 – 48 h after embedding. Compounds and BGJ398 were added in Dimethylsulfoxid (DMSO) and corresponding DMSO concentrations were used in control samples.

[2] = Cell viability (cytotoxicity, MTT) using HepG2; assay type: cell-based, human; details: human, HepG2 cells, 72 h, summary sheet, read-out: MTT (AC50) Conc at which 50% of maximum efficacy is reached
Method in brief: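 Compounds were tested at 8 concentrations in triplicate on HepG2 cells plated 24 h beforehand, with 72 h exposure in 1% DMSO medium. MTT was loaded 1 h before the end, solubilized in DMSO and read at 570 nm. Minimum effective concentration is the lowest concentration exceeding the significance level, given dose-response or two consecutive points above it.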

[3] = In vivo bioavailability / PK after 1 mg/kg IV or 10 mg/kg PO; parameters: species or system Male ICR mice; details: for Vd: read-out: Vss; for C0: read-out: C0 after IV administration
Description: In vivo bioavailability studies were performed by Pharmacology Discovery Services Taiwan, Ltd., (New Taipei City, Taiwan). Male ICR mice weighing 20—30 g were provided by BioLasco Taiwan (under Charles River Laboratories Licensee). Animals were acclimated for 3 days prior to use and were confirmed with good health. All animals were maintained in a hygienic environment with controlled temperature (20—24 °C), humidity (30%—70%) and 12 h light/dark cycles. Free access to sterilized standard lab diet [MFG (Oriental Yeast Co., Ltd., Japan)] and autoclaved tap water. A pharmacokinetic (PK) study was performed in male ICR mice following intravenous (IV) and oral (PO) administration of compound 7 and E12 and IV administration of the test compound 3.14. The three test compounds (7, E12 and 3.14) were formulated in 1% dimethyl sulfoxide (DMSO)/10% Solutol® HS-15/ phosphate buffered saline (PBS) at 0.2 mg/mL and 1 mg/mL for IV and PO administration, respectively. The dosing volumes were 5 ml/kg for IV and 10 ml/kg for PO. The dose was 1 mg/kg for IV and 10 mg/kg for PO routes.

[4] = test system: FRS2 (Y436) phosphorylation; assay: Immunoblotting, FRS2 phosphorylation; assay type: cell-based, human; details: DAOY or SW780 cells; 10 µM compound
Description: (§1) Cells were serum starved o.n. and 10 µM compound or 1 µM (BGJ398) were added 3 h before stimulation with 100 ng/ml bFGF for 15 min. Cells were lysed in RIPA buffer containing protease inhibitor cocktail and lysates resolved by SDS-PAGE. Membranes were probed with primary antibodies against phospho-FRS2, FRS2, phospho-ERK1/2, ERK1/2, pAKT, AKT and tubulin. Integrated density of immuno-reactive bands was quantified using Adobe Photoshop CS3. Integrated densities of phospho bands relative to non-phospho bands of same protein were calculated and plotted as fold-change relative to untreated control conditions. Compounds and BGJ398 were added in DMSO and corresponding DMSO concentrations were used in control samples.

ERK (pT202/Y204) = assay: Immunoblotting, ERK phosphorylation; assay type: cell-based, human; details: SW780 and AGS cells; 10 µM
Description: as §1

[5] = 10 mg/kg PO, time 0.167 h, mouse#1-3
[6] = 10 mg/kg PO, time 0.5 h, mouse#1-3
[7] = 10 mg/kg PO, time 1 h, mouse#1-3
[8] = 10 mg/kg PO, time 2 h, mouse#1-3
[9] = 10 mg/kg PO, time 4 h, mouse#1-3
[10] = 10 mg/kg PO, time 6 h, mouse#1-3
[11] = 10 mg/kg PO, time 8 h, mouse#1-3
[12] = 10 mg/kg PO, time 24 h, mouse#1-3
[13] = male, ICR, mouse, plasma, iv, 1 mg/kg, IV, read-out: AUClast
[14] = male, ICR, mouse, plasma, iv, 1 mg/kg, mice, 1 mg/kg IV, read-out: AUClast after IV administration
[15] = male, ICR, mouse, plasma, 1 mg/kg, IV
[16] = male, ICR, mouse, plasma, 10 mg/kg, PO
[17] = male, ICR, mouse, mice, 1 mg/kg IV, plasma
[18] = mg/kg IV, time 0.167 h, mouse#1-3
[19] = mg/kg IV, time 0.5 h, mouse#1-3

Cc1[nH]nc(-c2ccc(O)c(C)c2O)c1-c1nc2ccccc2s1 [Compound E12]
collagen I invasion across cancer cell lines (result in words) [1]: inhibited collagen I invasion only in bFGF-sensitive cell lines M059K, RT-112 and SW780 | AC50 at 72 h [2]: 23.7 µM | AUC Extr (%) ([3]; 1 mg/kg, IV): 0.5% | in vivo PK raw, level per mouse [3, 5]: 13 and 10 and 15 | in vivo PK raw, level per mouse (µM) [3, 5]: 0.02964 µM and 0.04446 µM | in vivo PK raw, level per mouse [3, 6]: 16 and 11 and 3 | in vivo PK raw, level per mouse (µM) [3, 6]: 0.04742 µM and 0.0326 µM and 0.008892 µM | in vivo PK raw, level per mouse [3, 7]: 1 and 2 and 10 | in vivo PK raw, level per mouse (µM) [3, 7]: 0.002964 µM and 0.005928 µM and 0.02964 µM | in vivo PK raw, level per mouse [3, 8]: 3 and 0 and 2 | in vivo PK raw, level per mouse (µM) [3, 8]: 0.008892 µM and 0 µM and 0.005928 µM | in vivo PK raw, level per mouse [3, 9]: 5 and 2 (2×) | in vivo PK raw, level per mouse (µM) [3, 9]: 0.01482 µM and 0.005928 µM (2×) | in vivo PK raw, level per mouse [3, 10]: 0 (2×) and 2 | in vivo PK raw, level per mouse (µM) [3, 10]: 0 µM (2×) and 0.005928 µM | in vivo PK raw, level per mouse [3, 11]: 1 | in vivo PK raw, level per mouse (µM) [3, 11]: 0.002964 µM | in vivo PK raw, level per mouse [3, 12]: 0 | in vivo PK raw, level per mouse (µM) [3, 12]: 0 µM | AUC Extr (%) ([3]; 10 mg/kg, PO): 14.8% | AUC/D ([3]; 10 mg/kg, PO): 3 kg·ng·h/mL/mg | AUClast (H*ng/ml) ([3]; 10 mg/kg, PO): 22 H*ng/ml | AUC(0-t) [3, 13]: 85 ng·h/mL | concentration at 0.167 h ([3]; male, ICR, mouse, plasma, iv, 1 mg/kg, mg/kg IV, time 0.167 h, mouse#1-3, read-out: in vivo PK raw, level per mouse): 1360 nM | concentration at 0.5 h ([3]; male, ICR, mouse, plasma, iv, 1 mg/kg, mg/kg IV, time 0.5 h, mouse#1-3, read-out: in vivo PK raw, level per mouse): 305 nM | concentration at 1 h ([3]; male, ICR, mouse, plasma, iv, 1 mg/kg, mg/kg IV, time 1 h, mouse#1-3, read-out: in vivo PK raw, level per mouse): 29.6 nM | concentration at 2 h ([3]; male, ICR, mouse, plasma, iv, 1 mg/kg, mg/kg IV, time 2 h, mouse#1-3, read-out: in vivo PK raw, level per mouse): 5.93 nM | concentration at 4 h ([3]; male, ICR, mouse, plasma, iv, 1 mg/kg, mg/kg IV, time 4 h, mouse#1-3, read-out: in vivo PK raw, level per mouse): 0 nM | concentration at 6 h ([3]; male, ICR, mouse, plasma, iv, 1 mg/kg, mg/kg IV, time 6 h, mouse#1-3, read-out: in vivo PK raw, level per mouse): 0 nM | concentration at 8 h ([3]; male, ICR, mouse, plasma, iv, 1 mg/kg, mg/kg IV, time 8 h, mouse#1-3, read-out: in vivo PK raw, level per mouse): 0 nM | concentration at 24 h ([3]; male, ICR, mouse, plasma, iv, 1 mg/kg, mg/kg IV, time 24 h, mouse#1-3, read-out: in vivo PK raw, level per mouse): 0 nM | AUC(0-t) [3, 14]: 85 ng·h/mL | concentration at 0.167 h ([3]; male, ICR, mouse, plasma, oral, 10 mg/kg, 10 mg/kg PO, time 0.167 h, mouse#1-3, read-out: in vivo PK raw, level per mouse): 38.5 nM | concentration at 8 h ([3]; male, ICR, mouse, plasma, oral, 10 mg/kg, 10 mg/kg PO, time 8 h, mouse#1-3, read-out: in vivo PK raw, level per mouse): 2.96 nM | concentration at 24 h ([3]; male, ICR, mouse, plasma, oral, 10 mg/kg, 10 mg/kg PO, time 24 h, mouse#1-3, read-out: in vivo PK raw, level per mouse): 0 nM | AUC(0-t) ([3]; male, ICR, mouse, plasma, po, 10 mg/kg, mice, 10 mg/kg PO, read-out: AUClast after PO administration): 22 ng·h/mL | AUC(0-inf) [3, 15]: 86 ng·h/mL | MRT [3, 15]: 6.6 min | clearance [3, 15]: 195 mL/min/kg | half-life [3, 15]: 9 min | Vd [3, 15]: 1.3 L/kg | AUC(0-inf) [3, 16]: 26 ng·h/mL | MRT [3, 16]: 233 min | Tmax [3, 16]: 10.2 min | bioavailability [3, 16]: 3% | half-life [3, 16]: 163 min | C0 [3, 17]: 762 ng/mL | Cmax ([3]; male, ICR, mouse, mice, 10 mg/kg PO, plasma, read-out: Cmax (oral bioavailability) after PO administration): 13 ng/mL | in vivo PK raw, level per mouse [3, 18]: 459 and 369 and 455 | in vivo PK raw, level per mouse (µM) [3, 18]: 1.094 µM and 1.349 µM | in vivo PK raw, level per mouse [3, 19]: 103 and 104 and 127 | in vivo PK raw, level per mouse (µM) [3, 19]: 0.3082 µM and 0.3764 µM | in vivo PK raw, level per mouse ([3]; mg/kg IV, time 1 h, mouse#1-3): 10 and 13 and 14 | in vivo PK raw, level per mouse (µM) ([3]; mg/kg IV, time 1 h, mouse#1-3): 0.03853 µM and 0.04149 µM | in vivo PK raw, level per mouse ([3]; mg/kg IV, time 2 h, mouse#1-3): 2 | in vivo PK raw, level per mouse (µM) ([3]; mg/kg IV, time 2 h, mouse#1-3): 0.005928 µM | in vivo PK raw, level per mouse ([3]; mg/kg IV, time 4 h, mouse#1-3): 0 | in vivo PK raw, level per mouse (µM) ([3]; mg/kg IV, time 4 h, mouse#1-3): 0 µM | in vivo PK raw, level per mouse ([3]; mg/kg IV, time 6 h, mouse#1-3): 0 | in vivo PK raw, level per mouse (µM) ([3]; mg/kg IV, time 6 h, mouse#1-3): 0 µM | in vivo PK raw, level per mouse ([3]; mg/kg IV, time 8 h, mouse#1-3): 0 | in vivo PK raw, level per mouse (µM) ([3]; mg/kg IV, time 8 h, mouse#1-3): 0 µM | in vivo PK raw, level per mouse ([3]; mg/kg IV, time 24 h, mouse#1-3): 0 | in vivo PK raw, level per mouse (µM) ([3]; mg/kg IV, time 24 h, mouse#1-3): 0 µM | CL1/2 after IV administration ([3]; mice, 1 mg/kg IV): 0.15 h | CL1/2 after PO administration ([3]; mice, 10 mg/kg PO): 2.71 h

CC(C)C[C@@H](CO)NCc1cc(O)c2cc(F)ccc2n1 [Compound 3.14]
basal or bFGF-induced Y436 phosphorylation of FRS2 (result in words) [4]: not effective in SW780 cells | pERK (result in words) (ERK (pT202/Y204)): significantly reduced pERK | AUC Extr (%) ([3]; 1 mg/kg, IV): 0.5% | AUC(0-t) [3, 13]: 410 ng·h/mL | AUC(0-t) [3, 14]: 413 ng·h/mL | AUC(0-inf) [3, 15]: 413 ng·h/mL | MRT [3, 15]: 31.2 min | clearance [3, 15]: 40 mL/min/kg | half-life [3, 15]: 93 min | Vd [3, 15]: 1.3 L/kg | C0 [3, 17]: 2700 ng/mL | CL1/2 after IV administration ([3]; mice, 1 mg/kg IV): 1.55 h

O=[N+]([O-])c1c(Cl)cc(O)c2c1C1C=CCC1C(c1ccc(Cl)cc1Cl)N2 (stereo not drawn) [Compound 8]
AC50 at 72 h [2]: 12.4 µM

COc1ncc(C(C)NC2CC(C)(C)NC(C)(C)C2)cc1Cl (stereo not drawn) [Compound 3.3]
collagen I invasion across cancer cell lines (result in words) [1]: significant repression of collagen I invasion only in SKOV3 and M059K cells | AC50 at 72 h [2]: > 100 µM
